Key:
HBV = experiment: In vitro antiviral assay: anti-HBV replication in HepAD38 cells (extracellular HBV DNA by QPCR); assay type: cell-based, hepatitis B virus (genotype D, serotype ayw); conditions: Hepatitis B virus, HePAD38, 168 h, 7 days incubation, extracellular HBV DNA by QPCR, read-out: Anti-HBV EC50
Outline: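 Read-out is extracellular HBV DNA (copies/mL, QPCR standard curve) after 7-day exposure of tet-free HepAD38 cells to 10-fold dilutions from 1 μM down to 10 pM. Values normalised to DMSO vehicle; EC50 from 4-parameter nonlinear regression, with entecavir validating each run.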

[1] = In vitro cytotoxicity assay (MTT cell viability) in HepG2 cells; assay type: cell-based, human; conditions: human
Outline: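 CC50 was derived by 4-parameter fit of viability relative to vehicle controls, measured as MTT formazan absorbance at 492 nm after 3–4 h of reagent and DMSO solubilization. Before that, HepG2 cells seeded overnight at 20,000/well were incubated 7 days at 37°C with compound from 30 μM down to 1.0 nM in half-log steps.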

SMILES	EC50 (HBV)	CC50 at 7 days [1]
Cc1cc(NC(=O)c2c(C)c(C(=O)C(=O)NC34CC(O)(C3)C4)n(C)c2C)ccc1F [Example 82, N-(4-fluoro-3-methylphenyl)-5-(2-((3-hydroxybicyclo[1.1.1]pentan-1-yl)amino)-2-oxoacetyl)-1,2,4-trimethyl-1H-pyrrole-3-carboxamide]	< 50 nM	> 30000 nM
Cc1c(C(=O)Nc2ccc(F)c(C#N)c2)c(C)n(C)c1C(=O)C(=O)NC1(C)CC(O)C1 (centres unmarked) [Example 83, N-(3-cyano-4-fluorophenyl)-5-(2-((3-hydroxy-1-methylcyclobutyl)amino)-2-oxoacetyl)-1,2,4-trimethyl-1H-pyrrole-3-carboxamide]	< 50 nM	> 30000 nM
Cc1cc(NC(=O)c2c(C)c(C(=O)C(=O)NC3CCc4nnn(C)c4C3)n(C)c2C)ccc1F (centres unmarked) [Example 85, N-(4-fluoro-3-methylphenyl)-1,2,4-trimethyl-5-(2-((1-methyl-4,5,6,7-tetrahydro-1H-benzo[d][1,2,3]triazol-6-yl)amino)-2-oxoacetyl)-1H-pyrrole-3-carboxamide]	< 50 nM	> 30000 nM
CCc1c(C(=O)Nc2ccc(F)c(C)c2)c(C)n(C)c1C(=O)C(=O)N[C@H]1CC[C@@H](O)CC1 [Example 86, 4-ethyl-N-(4-fluoro-3-methylphenyl)-5-(2-(((1s,4s)-4-hydroxycyclohexyl)amino)-2-oxoacetyl)-1,2-dimethyl-1H-pyrrole-3-carboxamide]	< 50 nM	> 30000 nM
CCc1c(C(=O)Nc2ccc(F)c(C)c2)c(C)n(C)c1C(=O)C(=O)N[C@]1(C)C[C@H](O)C1 [Example 87, 4-ethyl-N-(4-fluoro-3-methylphenyl)-5-(2-(((1s,3s)-3-hydroxy-1-methylcyclobutyl)amino)-2-oxoacetyl)-1,2-dimethyl-1H-pyrrole-3-carboxamide]	< 50 nM	> 30000 nM
CCc1c(C(=O)Nc2ccc(F)c(C)c2)c(C)n(C)c1C(=O)C(=O)NCC(C)(C)O [Example 88, 4-ethyl-N-(4-fluoro-3-methylphenyl)-5-(2-((2-hydroxy-2-methylpropyl)amino)-2-oxoacetyl)-1,2-dimethyl-1H-pyrrole-3-carboxamide]	500 to 1000 nM	> 30000 nM
CCc1c(C(=O)Nc2ccc(F)c(C)c2)c(C)n(C)c1C(=O)C(=O)N[C@H]1CC[C@@H](S(C)(=O)=O)CC1 [Example 89, 4-ethyl-N-(4-fluoro-3-methylphenyl)-1,2-dimethyl-5-(2-(((1s,4s)-4-(methylsulfonyl)cyclohexyl)amino)-2-oxoacetyl)-1H-pyrrole-3-carboxamide]	< 50 nM	> 30000 nM
CCc1c(C(=O)Nc2ccc(F)c(C)c2)c(C)n(C)c1C(=O)C(=O)N[C@H](C)C(F)(F)F [Example 90, (R)-4-ethyl-N-(4-fluoro-3-methylphenyl)-1,2-dimethyl-5-(2-oxo-2-((1,1,1-trifluoropropan-2-yl)amino)acetyl)-1H-pyrrole-3-carboxamide]	< 50 nM	5000 to 30000 nM
CCc1c(C(=O)Nc2ccc(F)c(C)c2)c(C)n(C)c1C(=O)C(=O)NC1CCN(c2cccnn2)CC1 [Example 91, 4-ethyl-N-(4-fluoro-3-methylphenyl)-1,2-dimethyl-5-(2-oxo-2-((1-(pyridazin-3-yl)piperidin-4-yl)amino)acetyl)-1H-pyrrole-3-carboxamide]	50 to 499 nM	> 30000 nM
Cc1cc(NC(=O)c2c(C(C)C)c(C(=O)C(=O)N[C@H]3CC[C@@H](O)CC3)n(C)c2C)ccc1F [Example 92, N-(4-fluoro-3-methylphenyl)-5-(2-(((1s,4s)-4-hydroxycyclohexyl)amino)-2-oxoacetyl)-4-isopropyl-1,2-dimethyl-1H-pyrrole-3-carboxamide]	50 to 499 nM	> 30000 nM
Cc1cc(NC(=O)c2c(C(C)C)c(C(=O)C(=O)N[C@]3(C)C[C@H](O)C3)n(C)c2C)ccc1F [Example 93, N-(4-fluoro-3-methylphenyl)-5-(2-(((1s,3s)-3-hydroxy-1-methylcyclobutyl)amino)-2-oxoacetyl)-4-isopropyl-1,2-dimethyl-1H-pyrrole-3-carboxamide]	> 1000 nM	> 30000 nM
Cc1cc(NC(=O)c2c(C(C)C)c(C(=O)C(=O)NCC(C)(C)O)n(C)c2C)ccc1F [Example 94, N-(4-fluoro-3-methylphenyl)-5-(2-((2-hydroxy-2-methylpropyl)amino)-2-oxoacetyl)-4-isopropyl-1,2-dimethyl-1H-pyrrole-3-carboxamide]	500 to 1000 nM	> 30000 nM
Cc1cc(NC(=O)c2c(C(C)C)c(C(=O)C(=O)N[C@H]3CC[C@@H](S(C)(=O)=O)CC3)n(C)c2C)ccc1F [Example 95, N-(4-fluoro-3-methylphenyl)-4-isopropyl-1,2-dimethyl-5-(2-(((1s,4s)-4-(methylsulfonyl)cyclohexyl)amino)-2-oxoacetyl)-1H-pyrrole-3-carboxamide]	> 1000 nM	> 30000 nM
Cc1cc(NC(=O)c2c(C(C)C)c(C(=O)C(=O)N[C@H](C)C(F)(F)F)n(C)c2C)ccc1F [Example 96, (R)-N-(4-fluoro-3-methylphenyl)-4-isopropyl-1,2-dimethyl-5-(2-oxo-2-((1,1,1-trifluoropropan-2-yl)amino)acetyl)-1H-pyrrole-3-carboxamide]	> 1000 nM	> 30000 nM
Cc1cc(NC(=O)c2c(C3CC3)c(C(=O)C(=O)N[C@H]3CC[C@@H](O)CC3)n(C)c2C)ccc1F [Example 97, 4-cyclopropyl-N-(4-fluoro-3-methylphenyl)-5-(2-(((1s,4s)-4-hydroxycyclohexyl)amino)-2-oxoacetyl)-1,2-dimethyl-1H-pyrrole-3-carboxamide]	500 to 1000 nM	> 30000 nM
Cc1cc(NC(=O)c2c(C3CC3)c(C(=O)C(=O)N[C@]3(C)C[C@H](O)C3)n(C)c2C)ccc1F [Example 98, 4-cyclopropyl-N-(4-fluoro-3-methylphenyl)-5-(2-(((1s,3s)-3-hydroxy-1-methylcyclobutyl)amino)-2-oxoacetyl)-1,2-dimethyl-1H-pyrrole-3-carboxamide]	50 to 499 nM	> 30000 nM
Cc1cc(NC(=O)c2c(C3CC3)c(C(=O)C(=O)NCC(C)(C)O)n(C)c2C)ccc1F [Example 99, 4-cyclopropyl-N-(4-fluoro-3-methylphenyl)-5-(2-((2-hydroxy-2-methylpropyl)amino)-2-oxoacetyl)-1,2-dimethyl-1H-pyrrole-3-carboxamide]	> 1000 nM	> 30000 nM
Cc1cc(NC(=O)c2c(C3CC3)c(C(=O)C(=O)N[C@H]3CC[C@@H](S(C)(=O)=O)CC3)n(C)c2C)ccc1F [Example 100, 4-cyclopropyl-N-(4-fluoro-3-methylphenyl)-1,2-dimethyl-5-(2-(((1s,4s)-4-(methylsulfonyl)cyclohexyl)amino)-2-oxoacetyl)-1H-pyrrole-3-carboxamide]	< 50 nM	> 30000 nM
Cc1cc(NC(=O)c2c(C3CC3)c(C(=O)C(=O)N[C@H](C)C(F)(F)F)n(C)c2C)ccc1F [Example 101, (R)-4-cyclopropyl-N-(4-fluoro-3-methylphenyl)-1,2-dimethyl-5-(2-oxo-2-((1,1,1-trifluoropropan-2-yl)amino)acetyl)-1H-pyrrole-3-carboxamide]	< 50 nM	> 30000 nM
Cc1cc(NC(=O)c2c(C3CC3)c(C(=O)C(=O)N[C@]3(C)CC[C@@H](O)CC3)n(C)c2C)ccc1F [Example 102, 4-cyclopropyl-N-(4-fluoro-3-methylphenyl)-5-(2-(((1r,4r)-4-hydroxy-1-methylcyclohexyl)amino)-2-oxoacetyl)-1,2-dimethyl-1H-pyrrole-3-carboxamide]	< 50 nM	> 30000 nM
Cc1cc(NC(=O)c2c(C3CC3)c(C(=O)C(=O)NC3CCN(c4cccnn4)CC3)n(C)c2C)ccc1F [Example 103, 4-cyclopropyl-N-(4-fluoro-3-methylphenyl)-1,2-dimethyl-5-(2-oxo-2-((1-(pyridazin-3-yl)piperidin-4-yl)amino)acetyl)-1H-pyrrole-3-carboxamide]	500 to 1000 nM	> 30000 nM
CCc1c(C(=O)Nc2ccc(F)c(C)c2)c(C)c(C(=O)C(=O)N[C@]2(C)C[C@H](O)C2)n1C [Example 104, 2-ethyl-N-(4-fluoro-3-methylphenyl)-5-(2-(((1s,3s)-3-hydroxy-1-methylcyclobutyl)amino)-2-oxoacetyl)-1,4-dimethyl-1H-pyrrole-3-carboxamide]	< 50 nM	> 30000 nM
CCc1c(C(=O)Nc2ccc(F)c(C)c2)c(C)c(C(=O)C(=O)NCC(C)(C)O)n1C [Example 105, 2-ethyl-N-(4-fluoro-3-methylphenyl)-5-(2-((2-hydroxy-2-methylpropyl)amino)-2-oxoacetyl)-1,4-dimethyl-1H-pyrrole-3-carboxamide]	< 50 nM	> 30000 nM
CCc1c(C(=O)Nc2ccc(F)c(C)c2)c(C)c(C(=O)C(=O)N[C@H]2CC[C@@H](S(C)(=O)=O)CC2)n1C [Example 106, 2-ethyl-N-(4-fluoro-3-methylphenyl)-1,4-dimethyl-5-(2-(((1s,4s)-4-(methylsulfonyl)cyclohexyl)amino)-2-oxoacetyl)-1H-pyrrole-3-carboxamide]	< 50 nM	> 30000 nM
CCc1c(C(=O)Nc2ccc(F)c(C)c2)c(C)c(C(=O)C(=O)N[C@]2(C)CC[C@H](O)CC2)n1C [Example 107, 2-ethyl-N-(4-fluoro-3-methylphenyl)-5-(2-(((1s,4s)-4-hydroxy-1-methylcyclohexyl)amino)-2-oxoacetyl)-1,4-dimethyl-1H-pyrrole-3-carboxamide]	< 50 nM	> 30000 nM
